Here are results for 22 molecules from PubChem BioAssay (NCI).

Where “and” joins values, the source holds several entries; their conditions need not be identical. Equal entries are not always repeated.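 Test compounds were applied to cells in 96-well plates for 48 hours at 5 doses. GI50 is the concentration that inhibits growth by half. TGI: total growth inhibition.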

Test systems include COLO 205 colon; DMS 114 small cell lung; HCC-2998 colon; HCT-116 colon; HOP-62 NSCLC; K-562 leukemia; M19-MEL melanoma; MCF7 breast; OVCAR-4 ovarian; ACHN renal; T-47D breast.
Assay in all cases: inhibition of tumour cell growth, NCI panel, 48 h

On to `Cc1ccc(N2C(=O)C3CSCN3C2=O)cc1` (stereo not given), for which the TGI was over 100 µM in the assay with COLO 205 colon; over 100 µM in the assay with DMS 114 small cell lung; over 100 µM with HCC-2998 colon; > 100 µM and 11.7 µM with HCT-116 colon; over 100 µM with HOP-62 NSCLC; over 100 µM with K-562 leukemia. The TGI with M19-MEL melanoma, in the assay with MCF7 breast and with OVCAR-4 ovarian was over 100 µM each time. Moreover, the GI50 in the assay on HCT-116 colon was over 100 µM.
For `CCC1=C(C[C@H]2NCCc3cc(OC)c(OC)cc32)C[C@H]2c3cc(OC)c(OC)cc3CCN2C1`, the TGI with ACHN renal is 0.28 µM; in the assay on DMS 114 small cell lung, 0.0598 µM; with HCC-2998 colon, 0.0964 µM; with HCT-116 colon, 0.0745 µM; with HOP-62 NSCLC it was 0.106 µM; with M19-MEL melanoma, 0.0983 µM. The TGI in the assay on OVCAR-4 ovarian was determined as 0.0717 µM.
In the case of `Cc1cc2c(=O)c3ccc(Cl)cc3[nH]c2c(C(N)=O)c1C`, the TGI in the assay on ACHN renal, with COLO 205 colon, in the assay on DMS 114 small cell lung, with HCC-2998 colon, in the assay on HCT-116 colon and with HOP-62 NSCLC was over 100 µM throughout. In addition, the TGI with K-562 leukemia, in the assay with M19-MEL melanoma and with OVCAR-4 ovarian was over 100 µM each time.
`O=C1N2CCC[C@H]2CS1(=O)=O`: the TGI amounted to 29.7 µM in the assay with ACHN renal; 28.9 µM in the assay on COLO 205 colon; 32.2 µM in the assay on HCC-2998 colon; 28.1 µM in the assay with HCT-116 colon; 32 µM in the assay with HOP-62 NSCLC; 32.1 µM in the assay with K-562 leukemia. Also, the TGI in the assay with MCF7 breast worked out at 21.8 µM; in the assay on OVCAR-4 ovarian it was 28.6 µM; in the assay on T-47D breast it was 32.9 µM.
Consider `Cc1cc(=O)[nH]c(NNC(C#N)c2ccccc2O)n1` (stereo not given), for which the TGI is 90.8 µM with ACHN renal; over 100 µM in the assay with COLO 205 colon; 60.9 µM with DMS 114 small cell lung; over 100 µM in the assay on HCT-116 colon; 99.8 µM in the assay on HOP-62 NSCLC; over 100 µM in the assay on K-562 leukemia. For the same molecule, the TGI in the assay on M19-MEL melanoma and in the assay with OVCAR-4 ovarian was over 100 µM each time.
As for `O=C1C=CC(=O)c2c(O)c(N3CCOCC3)c(Cl)c(O)c21`, the TGI is 0.739 µM in the assay with ACHN renal; 0.395 µM in the assay on COLO 205 colon; 3.16 µM in the assay on HCC-2998 colon; 0.403 µM in the assay with HCT-116 colon; 2.36 µM in the assay on HOP-62 NSCLC; over 10 µM in the assay on K-562 leukemia. Moreover, the TGI in the assay on MCF7 breast was determined as 0.486 µM; with OVCAR-4 ovarian, 0.663 µM; in the assay on T-47D breast, 4.36 µM.
For the molecule `c1ccc2c[n+](CCCC[n+]3ccc4ccccc4c3)ccc2c1`, the TGI in the assay on ACHN renal, in the assay with COLO 205 colon, in the assay on HCC-2998 colon, in the assay with HCT-116 colon, with HOP-62 NSCLC and in the assay on K-562 leukemia was over 100 µM in each case. Also, the TGI with MCF7 breast, in the assay on OVCAR-4 ovarian and in the assay with T-47D breast was over 100 µM throughout.
As to `O=C1CC(c2ccsc2)n2cccc21` (stereo not given), the TGI in the assay on ACHN renal, in the assay with COLO 205 colon, in the assay with HCC-2998 colon, in the assay with HCT-116 colon, in the assay on HOP-62 NSCLC and in the assay with K-562 leukemia was over 100 µM each time. Further, the TGI with MCF7 breast, with OVCAR-4 ovarian and in the assay with T-47D breast was over 100 µM throughout.
Turning to `COc1ccc(OC)c2c(C)ccnc12`, the TGI is over 100 µM in the assay on ACHN renal; over 83.3 µM in the assay on COLO 205 colon; over 100 µM in the assay with HCC-2998 colon; over 100 µM in the assay on HCT-116 colon; over 60.9 µM in the assay on HOP-62 NSCLC; over 100 µM with K-562 leukemia. Further, the TGI in the assay on MCF7 breast is over 100 µM; with OVCAR-4 ovarian it was over 71 µM; in the assay on T-47D breast, over 100 µM.
As for `O=C(Nc1ccc(-n2cc(-c3ccncc3)c(-c3ccc(O)c(Cl)c3)n2)cc1)c1ccc(Cl)c(C(F)(F)F)c1`, the GI50 in the assay on ACHN renal was 1.8 µM; in the assay on COLO 205 colon it was 7.67 µM; in the assay on HCC-2998 colon, 2.82 µM; in the assay on HCT-116 colon, 1.75 µM; with HOP-62 NSCLC it was 2.31 µM; in the assay with K-562 leukemia, 1.37 µM. Besides, the figures for the GI50 with MCF7 breast, in the assay on OVCAR-4 ovarian and in the assay with T-47D breast were 2.4 µM, 2.52 µM and 3.43 µM, respectively. The TGI in the assay on ACHN renal was 13.3 µM; in the assay with COLO 205 colon it was 26 µM; with HCC-2998 colon, over 50 µM; with HCT-116 colon, 7.04 µM; in the assay on HOP-62 NSCLC, over 50 µM; with K-562 leukemia, over 50 µM. Besides, the TGI with MCF7 breast was over 50 µM; in the assay with OVCAR-4 ovarian, over 50 µM; in the assay with T-47D breast it was 37.2 µM.
`COC(=O)CCC(=O)NC1=C(Nc2ccccc2)C(=O)c2ccccc2C1=O`: the TGI with ACHN renal is 29.5 µM; in the assay with COLO 205 colon, 35.3 µM; with HCC-2998 colon, 37.9 µM; with HCT-116 colon, 23 µM; in the assay on HOP-62 NSCLC it was 32.1 µM; in the assay with K-562 leukemia, over 57.6 µM. Moreover, the TGI in the assay with MCF7 breast was determined as 10.4 µM; with OVCAR-4 ovarian, 22.9 µM; in the assay on T-47D breast it was 32.8 µM.
Consider `CCOc1ccc2nc3nc(=O)[nH]c(C)c3c(NC(C)(CO)CO)c2c1`, for which the TGI in the assay with ACHN renal, in the assay on COLO 205 colon, in the assay on HCC-2998 colon, in the assay on HCT-116 colon, in the assay with HOP-62 NSCLC and in the assay on K-562 leukemia was over 100 µM each time. In addition, the TGI in the assay on MCF7 breast, in the assay on OVCAR-4 ovarian and in the assay on T-47D breast was over 100 µM throughout.
Take `Cc1cc2nc3ccccc3n2c2ccccc12`: the TGI with ACHN renal, in the assay with COLO 205 colon, with HCC-2998 colon, with HCT-116 colon, in the assay on HOP-62 NSCLC and in the assay on K-562 leukemia was over 10 µM each time. Moreover, the TGI in the assay on MCF7 breast, with OVCAR-4 ovarian and with T-47D breast was over 10 µM in each case.
With `[N-]=[N+]=Nc1nc2ccccc2c(N=[N+]=[N-])c1Cl`, the TGI in the assay with ACHN renal, in the assay on COLO 205 colon, with HCC-2998 colon, with HCT-116 colon, with HOP-62 NSCLC and in the assay on K-562 leukemia was over 100 µM each time. In addition, the TGI in the assay on MCF7 breast, in the assay on OVCAR-4 ovarian and with T-47D breast was over 100 µM throughout.
Turning to `Cc1c(OCc2cccc3ccccc23)ccc2c(=O)cc(SCCN3CCOCC3)oc12`, the TGI in the assay on ACHN renal, in the assay with COLO 205 colon, with HCC-2998 colon, in the assay on HCT-116 colon, in the assay on HOP-62 NSCLC and in the assay on K-562 leukemia was over 100 µM throughout. In addition, the TGI with MCF7 breast, with OVCAR-4 ovarian and with T-47D breast was over 100 µM in each case.
With `COc1cccc(NC(=O)CC(=O)n2nc(-c3ccccc3)c(N=Nc3ccc(Cl)cc3)c2-c2ccccc2)c1`, the TGI was over 100 µM with ACHN renal; 61.6 µM with COLO 205 colon; 64.5 µM with HCC-2998 colon; 67 µM in the assay on HCT-116 colon; 90.9 µM with HOP-62 NSCLC; over 78 µM with K-562 leukemia. Also, the TGI in the assay on MCF7 breast was 45.3 µM; in the assay with OVCAR-4 ovarian it was over 100 µM; with T-47D breast, over 100 µM.
Regarding `O=C(O)CSC1=NNC2(C(=O)N1)c1ccccc1-c1ccccc12`, the TGI in the assay with ACHN renal, with COLO 205 colon, in the assay on HCC-2998 colon, in the assay on HCT-116 colon, in the assay with HOP-62 NSCLC and with K-562 leukemia was over 10 µM each time. The TGI in the assay with MCF7 breast, with OVCAR-4 ovarian and in the assay on T-47D breast was over 10 µM in each case.
On to `O=C(c1ccccc1)c1nnn(Cc2ccccc2Cn2nnc(C(=O)c3ccccc3)c2C(=O)c2ccccc2)c1C(=O)c1ccccc1`, for which the TGI in the assay on ACHN renal, with COLO 205 colon, in the assay with DMS 114 small cell lung, in the assay with HCC-2998 colon, in the assay with HCT-116 colon and in the assay on HOP-62 NSCLC was over 100 µM throughout. Further, the TGI in the assay on K-562 leukemia, with M19-MEL melanoma and in the assay on OVCAR-4 ovarian was over 100 µM throughout.
With `O=C1c2ccncc2C(=O)c2c(O)ccc(O)c21`, the TGI in the assay on ACHN renal was found to be 17.1 µM; with COLO 205 colon, 13.1 µM; in the assay with DMS 114 small cell lung, 13 µM; with HCC-2998 colon, 16.3 µM; in the assay with HCT-116 colon, 10.3 µM; in the assay on HOP-62 NSCLC, 61.6 µM. Further, the TGI with K-562 leukemia was 55.5 µM; in the assay with M19-MEL melanoma, 9.58 µM; in the assay on OVCAR-4 ovarian, 23.6 µM.
Turning to `Oc1cccc2c(Br)ccnc12`, the TGI is 27.5 µM with ACHN renal; 27.3 µM with COLO 205 colon; 31.7 µM in the assay on HCC-2998 colon; 12.2 µM in the assay with HCT-116 colon; over 69 µM with HOP-62 NSCLC; over 22.5 µM in the assay on K-562 leukemia. The TGI with MCF7 breast was over 31.6 µM; with OVCAR-4 ovarian, 10.2 µM; in the assay with T-47D breast it was over 51.5 µM.
Regarding `Oc1ccc(Cl)cc1-c1cc(-c2ccccc2)nc(=S)[nH]1`, the TGI in the assay on ACHN renal was over 100 µM; in the assay on COLO 205 colon, over 100 µM; in the assay with HCC-2998 colon it was over 100 µM; in the assay on HCT-116 colon it was over 100 µM; in the assay on HOP-62 NSCLC, 46.9 µM; in the assay on K-562 leukemia, over 100 µM. Also, the TGI in the assay on MCF7 breast, with OVCAR-4 ovarian and in the assay on T-47D breast was over 100 µM throughout.
On to `COc1cccc2c1OC1c3ccccc3OCC1(O)C2` (stereo not given), for which the TGI in the assay on ACHN renal, in the assay on COLO 205 colon, in the assay on HCC-2998 colon, in the assay on HCT-116 colon, in the assay on HOP-62 NSCLC and in the assay on K-562 leukemia was over 100 µM each time. The TGI in the assay on MCF7 breast, in the assay with OVCAR-4 ovarian and with T-47D breast was over 100 µM each time.
